Results published in patent publication US20250145631A1, “HETEROCYCLIC COMPOUND ACTING ON G12D MUTANT KRAS PROTEIN” (Astellas Pharma Inc., priority 2022, published 2025).

Legend:
[1] = tested on: human KRAS G12D mutant-positive PK-59 pancreatic cancer cell line-derived xenograft; assay: Anti-tumor activity in PK-59 xenograft mice (Test Example 4); format: in vivo; conditions: 3 mg/kg into tail vein, once a week, twice in total; PK-59 xenograft nude mice
Experimental: PK-59 cells (RIKEN BioResearch Center, RCB1901) were cultured using RPMI 1640 medium containing 10% fetal bovine serum in the presence of 5% CO2 at 37° C. The PK-59 cells were collected and suspended in PBS, and after adding an equal amount of Matrigel (from Becton, Dickinson and Company), 4- to 5-week-old male nude mice (BALB/c-nu (nu/nu), from Charles River Laboratories Japan) were subcutaneously inoculated with the cell suspension of 1.0 to 2.0×10^7 cells/mL was subcutaneously inoculated in a volume of 100 μL per mouse. About two weeks after the inoculation, the mice were divided into groups so that all the groups had approximately the same tumor volume and body weight, and administration of test compounds was started on the next day. The study was conducted for 5 mice each of a vehicle group and test compound administration groups. The compounds were dissolved in a solvent containing ethanol (from FUJIFILM Wako Pure Chemical Corporation), a 5% glucose solution (from Otsuka Pharmaceutical), 1M hydrochloric acid (from Kanto Chemical Co., Inc.), 50% (2-hydroxypropyl)-P-cyclodextrin (HP-βCD) solution (from ROQUETTE), HCO-40 (from Nikko Chemicals Co., Ltd.) and 1M sodium hydroxide solution (from Kanto Chemical Co., Inc.) at a liquid amount ratio of 4:84.4:1.1:1:9:0.5. The test compounds dissolved in the respective solvents or the solvents were administered into tail vein. The administration was performed once a week and twice in total. The tumor sizes and the body weights were measured twice a week. The tumor volumes were calculated using the following equation.
[Tumor volume (mm^3)]=[Long diameter of tumor (mm)]×[Short diameter of tumor (mm)]^2×0.5
The tumor growth inhibition rate (%) by the test compounds were calculated with the tumor volumes of the test compound administration groups on the previous day of the start of the administration taken as 100% inhibition and the tumor volumes of the vehicle groups two weeks after the initial administration taken as 0% inhibition. In addition, when the tumor volume of a test compound administration group was smaller than the tumor volume on the previous day of the start of the administration, the tumor regression rate (%) by the test compound was calculated with the tumor volume on the previous day of the start of the administration taken as 0% regression and with the tumor volume 0 taken as 100% regression.

KRAS G12D = molecular target: T1, KRAS G12D (Homo sapiens, UniProt P01116, G12D); assay: KRAS degradation activity by Cell ELISA in AsPC-1 cells (Test Example 1); format: cell-based; conditions: Cell ELISA; for Dmax: ASPC1, overnight treatment, read-out: Dmax (degradation rate at the concentration showing highest degradation); for DC50: overnight treatment, read-out: DC50 (50% degradation concentration of KRAS)
T1 construct: host or cells: AsPC-1 (human pancreatic cancer line)
In short: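 AsPC-1 cells (2.0×10^4/well) treated overnight with compounds at 10 μM–0.3 nM (10 points), then fixed, permeabilised and stained for KRAS G12D (800 nm) and β-actin (700 nm) by in-cell ELISA. KRAS signal normalised to β-actin, DMSO set as 0% and actin-only staining as 100%; DC50 from Sigmoid-Emax regression up to Dmax.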

T1 sequence (P01116 1-188 isoform P01116-2 G12D): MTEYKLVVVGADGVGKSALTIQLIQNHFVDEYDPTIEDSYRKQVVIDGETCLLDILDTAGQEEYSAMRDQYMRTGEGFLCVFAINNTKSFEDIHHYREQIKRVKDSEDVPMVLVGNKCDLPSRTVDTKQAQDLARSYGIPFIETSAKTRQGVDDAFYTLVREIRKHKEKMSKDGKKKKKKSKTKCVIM

| Compound | Anti-Tumor Activity Two Weeks After Initial Administration (tumor regression rate) [1] [% regression] | Dmax (KRAS G12D) [%] | DC50 (KRAS G12D) [nM] |
| --- | --- | --- | --- |
| CO[C@@H](C)COc1nc(N2C[C@@H]3C[C@H]2CN3)c2cc(C3CC3)c(-c3c(C)c(F)cc4[nH]ncc34)c(OCc3ccc(C(=O)N4CCN(Cc5ccc6c(c5)n(C)c(=O)n6C5CCC(=O)NC5=O)C[C@@H]4C)cc3)c2n1 (stereo partly drawn) [Example 10, 3-(5-{[(3S)-4-{4-[({(7M)-6-cyclopropyl-4-[(1S,4S)-2,5-diazabicyclo[2.2.1]heptan-2-yl]-7-(6-fluoro-5-methyl-1H-indazol-4-yl)-2-[(2S)-2-methoxypropoxy]quinazolin-8-yl}oxy)methyl]benzoyl}-3-methylpiperazin-1-yl]methyl}-3-methyl-2-oxo-2,3-dihydro-1H-benzimidazol-1-yl)piperidine-2,6-dione] | 28 | 86 | 8 |
| CO[C@@H](C)COc1cc(O[C@H]2CCNC2)c2cc(C3CC3)c(-c3c(C)c(F)cc4[nH]ncc34)c(OCc3ccc(C(=O)N4CCN(Cc5ccc6c(c5)n(C)c(=O)n6C5CCC(=O)NC5=O)C[C@@H]4C)cc3)c2n1 (stereo partly drawn) [Example 12, 3-[5-({(3S)-4-[4-({[6-cyclopropyl-7-(6-fluoro-5-methyl-1H-indazol-4-yl)-2-[(2S)-2-methoxypropoxy]-4-{[(3S)-pyrrolidin-3-yl]oxy}quinolin-8-yl]oxy}methyl)benzoyl]-3-methylpiperazin-1-yl}methyl)-3-methyl-2-oxo-2,3-dihydro-1H-benzimidazol-1-yl]piperidine-2,6-dione] | 35 | 82 | 18 |
| Cc1c(F)cc2[nH]ncc2c1-c1c(C2CC2)cc2c(N3C[C@@H]4C[C@H]3CN4)nc(OC3CCOCC3)nc2c1OCc1ccc(C(=O)N2CCN(Cc3ccc4c(c3)n(C)c(=O)n4C3CCC(=O)NC3=O)C[C@@H]2C)cc1 (stereo partly drawn) [Example 8, 3-(5-{[(3S)-4-{4-[({(7M)-6-cyclopropyl-4-[(1S,4S)-2,5-diazabicyclo[2.2.1]heptan-2-yl]-7-(6-fluoro-5-methyl-1H-indazol-4-yl)-2-[(oxan-4-yl)oxy]quinazolin-8-yl}oxy)methyl]benzoyl}-3-methylpiperazin-1-yl]methyl}-3-methyl-2-oxo-2,3-dihydro-TH-benzimidazol-1-yl)piperidine-2,6-dione] | 28 | 86 | 13 |
| CO[C@@H](C)COc1cc(N2C[C@@H]3C[C@H]2CN3)c2cc(C3CC3)c(-c3c(C)c(F)cc4[nH]ncc34)c(OCc3ccc(C(=O)N4CCN(Cc5ccc6c(c5)n(C)c(=O)n6C5CCC(=O)NC5=O)C[C@@H]4C)cc3)c2n1 (stereo partly drawn) [Example 29, 3-(5-{[(3S)-4-{4-[({6-cyclopropyl-4-[(1S,4S)-2,5-diazabicyclo[2.2.1]heptan-2-yl]-7-(6-fluoro-5-methyl-1H-indazol-4-yl)-2-[(2S)-2-methoxypropoxy]quinolin-8-yl}oxy)methyl]benzoyl}-3-methylpiperazin-1-yl]methyl}-3-methyl-2-oxo-2,3-dihydro-1H-benzimidazol-1-yl)piperidine-2,6-dione] | 5 | 86 | 22 |
